The values that follow come from patent US20180050093A1, “LEPTIN ACTIVE PEPTIDE HAVING D HELIX REGION MUTATIONS, CODING GENE THEREOF, AND APPLICATION THEREOF” (SUN YAT-SEN UNIVERSITY, priority 2015, published 2018).

The assay relates to 3T3-L1 preadipocytes. Description: In-vitro lipid-lowering (adipocyte-degrading) activity analysis, MTT detection. Format: cell-based. To be noted: for adipocyte lysis activity vs. negative control (Control, PBS): FIG. 2 mark a. Here is the method: Preadipocytes: induced preadipocytes stage; D0-D2: 0-2nd day of induced differentiation (an early stage of differentiation); D9: the 9th day of induced differentiation (a mature adipocyte stage).
1.2 In-Vitro Lipid-Lowering Activity Analysis of the Leptin Active Peptide
Lipid degradation activity of the synthesized leptin active peptide having helix D region mutation is analyzed on a cellular level by taking a 3T3-L1 preadipocyte line as a model. Specific operations are as follows:
b: an early differentiation stage D0-D2 (0-2nd day of induced differentiation); and
c: a mature adipocyte stage D9 (the 9th day of induced differentiation);
a. leptin active peptide having helix D region mutation (PEP-D): diluted to […] with purified water and preserved at −20° C. for later use. After an experiment is started, working concentrations have 3 concentration gradients, that is, 10^−6M, 10^−9M and 10^−11M;
b. positive control. I: H-LEP, recombinant human-derived leptin protein (10221-HNAE, Beijing Sino Biological Inc.), diluted to 10^−6M with purified water and preserved at −20° C. for later use. After an experiment is started, the working concentration is 10^−9M;
c. positive control 2: Ros (rosiglitazone,R2408,Sigma), diluted to a stock solution with a concentration of 2518 μM with DMSO and preserved at −20° C. for later use. After an experiment is started, the stock solution is diluted to a working solution of 0.5 μM with cell culture fluid;
d. negative control (Control): equivalent quantity of PBS
(1) Inoculating 3T3-L1 preadipocytes in corning cell bind 96-well plates (totally inoculated with 3 plates, respectively plate a, plate b and plate c), wherein the inoculation density is 4500 cells/well; and marking, and standing and culturing at 37° C. in a 5% CO2 incubator. Each sample of each plate is operated repeatedly for 3 times, and the whole experiment is repeated for 3 times;
(2) Continuously culturing for 48 hours after the cells are merged to 100% (enabling the cells to exit from a growth cycle, and starting induced differentiation); and
i, taking out the plate a; respectively adding different amounts of leptin active peptide having helix D region mutation (PEP-D) to enable the working concentrations to be respectively 3 concentration gradients, that is, 10^−6M, 10^−9M and 10^−11M; setting 2 positive controls, a negative control (PBS) and a blank control (3 repeated holes are set for each sample), and continuously standing and culturing at 37° C. in the 5% CO2 incubator.
ii, when culturing to 45 hours (that is, 3 hours before the end of drug treatment), taking out the plate a, and measuring MTT (preadipocytes). Specific operations: adding 20 μL of 5 mg/mL of MTT solution into each well, continuously standing and culturing at 37° C. in the 5% CO2 incubator for 3 hours, sucking and discarding the culture solution in the wells, adding 150 μL of DMSO into each well, horizontally shaking for 10 min, detecting a light absorption value at 492 nm by a microplate reader, and drawing a growth curve;
i, taking out the plate b; adding the differentiation induced liquid I (D0); respectively adding the leptin active peptide having helix D region mutation (PEP-D); setting 2 positive controls, a negative control (PBS) and a blank control (3 repeated holes are set for each sample), and continuously standing and culturing at 37° C. in the 5% CO2 incubator.
ii, when culturing to 45 hours (that is, 3 hours before the end of drug treatment), taking out the plate b, and measuring MTT (at the early differentiation stage, D0-D2). Specific operations: adding 20 μL, of 5 mg/mL of MTT solution into each well; continuously standing and culturing at 37° C. in the 5% CO2 incubator for 3 hours; sucking and discarding the culture solution in the wells; adding 150 μL of DMSO into each well; horizontally shaking for 10 min; detecting a light absorption value at 492 nm by the microplate reader; and drawing a growth curve; […]

The mark [1] stands for this setting: P<0.05, H-LEP 10^−9M, Ros 0.5 μM.

For the molecule `CN(CCOc1ccc(CC2SC(=O)NC2=O)cc1)c1ccccn1` (stereo not shown) [Ros, rosiglitazone, reference compound], the “adipocyte lysis activity vs. negative control (Control, PBS)” value under setting [1] was “obviously better than that of the negative control”.

“H-LEP: recombinant human-derived leptin protein (10221-HNAE, Beijing Sino Biological Inc.), positive control”: the “adipocyte lysis activity vs. negative control (Control, PBS)” value under setting [1] is on record as “obviously better than that of the negative control”.

Consider “STEVVALDGLQGSLQTMLLQLEYS (An amino acid sequence of the leptin active peptide having helix D region mutation) [PEP-D]”, for which, under “FIG. 2 mark b, P<0.05”, the “adipocyte lysis activity vs. H-LEP” value is reported as “obviously better than that of the H-LEP”. Also, where the note is “FIG. 2 mark c, P<0.05”, the “adipocyte lysis activity vs. Ros” value is listed as “obviously better than that of the Ros”. For the same molecule, for the setting “MTT, three cell differentiation stages (preadipocytes, early differentiation D0-D2, mature adipocyte D9), PEP-D 10^−6M, 10^−9M, 10^−11M, H-LEP 10^−9M, Ros 0.5 μM”, the “adipocyte-degrading activity compared with the positive controls H-LEP and Ros” value was “obviously better than that of positive control-human-derived leptin protein (H-LEP) and a commercially available drug rosiglitazone (Ros)”. Also, the “concentration dependence of lipid-lowering activity” value (MTT, working concentrations 10^−6M, 10^−9M and 10^−11M) is recorded as “obvious concentration dependence”. Moreover, where the note is “preadipocytes stage, differentiation stage (D0-D2), mature adipocyte stage (D9)”, the “cell lysis effects at cell stages” value is listed as “obvious cell lysis effects at three stages”.
